According to paper PMC11931565, “Exploring medium and long arm extensions of 1,2,4-triazole derivatives as Candida albicans 14α-demethylase (CYP51) inhibitors” (RSC Medicinal Chemistry, 2025):
Values after ≈ are worked out from the molar mass of the structure shown. Read-outs that look alike come from different tables or passages of the source.

What was measured:
[1] = system: S. cerevisiae Y2760 overexpressed H. sapiens wild-type CYP51 (HsCYP51); experiment: MIC, recombinant S. cerevisiae strain Y2760 HsCYP51; assay type: cell-based; settings: Saccharomyces cerevisiae; SD medium pH 6.8, 30 °C; 80% inhibition of growth; read-out: MIC Y2760 HsCYP51
Procedure: (§1) The most promising thiazole derivative 7b, and the extended amide derivatives 13a and 13b were evaluated against a panel of recombinant S. cerevisiae strains[24,31,32] expressing control levels of wild-type CYP51 (ScCYP51), overexpressed wild-type ScCYP51, overexpressed azole-resistant ScCYP51 Y140F/H mutations (S. cerevisiae Y140 equivalent to C. albicans Y132), overexpressed C. albicans efflux pumps MDR1a or CDR1B and overexpressed H. sapiens wild-type CYP51 (HsCYP51) (Table 3) at 24 and 48 h with each assay performed in triplicate.
The HsCYP51 ORF (NP_000777.1) was codon harmonized (ch) using DNA 2.0 for expression in S. cerevisiae and synthesized by ATUM (Newark, Ca, USA). The 3′ end of the ORF was extended to encode EQKI of the ScErg11 C-terminus, followed by a GGR linker and a 6xHis tag. Strain Y2514 was prepared by transforming host strain Y1857 with a transformation cassette including the above construct together with the ScPGK transcription terminator and URA3 selection marker located downstream, bordered by upstream and downstream parts of ScPDR5 gene identical to sequences in ScErg11 over-expressing strain Y941. Strain Y2514 constitutively overexpressed HsCYP51ch-6xHis and URA3 from the ScPDR5 locus.
Strain Y2757 (Y2514, PDR15::HsCPRch-6xHis-LoxP-HIS1-LoxP) was prepared by co-expressing the cognate reductase HsCRP in strain Y2514. Codon harmonisation and synthesis of human NADPH-cytochrome P450 reductase isoform 2 (HsCPRch, NP_001369584.1) ORF was performed by ATUM. The gene was 3′ extended with a sequence encoding GGR-6xHIS. A transformation cassette was prepared by recombinant PCR to include the HsCPRch ORF with 657 nucleotides the ScPDR5 promoter upstream, and the ScPGK terminator followed by the LoxP flanked ScHIS1 selection marker downstream. ScPDR15 specific arms bordering the construct enabled the cassette to be integrated between the nucleotide 441 of the 5′ UTR and nucleotide 1 of the 3′ UTR in PDR15.
Strain Y2758 (Y2757 ΔHIS1) was made using the following steps. Strain Y2757 was transformed with the pSH69 pGAL1-cre plasmid (Euroscarf, Germany) via selection on hygromycin (75 μg mL^−1) containing YPD plates. A single hygromycin positive colony was inoculated in 1% yeast extract, 2% peptone and 2% of galactose broth and incubated for 16 hours at 30 °C with shaking. The diluted culture was then plated on YPD agar and replica-plated on YPD + hygromycin and SD-HIS dropout agar plates. Deletion of the HIS selection marker downstream of HsCPRch-6xHis in the PDR15 locus was confirmed in double His and hygromycin negative isolates by PCR and DNA sequence analysis.
The endogenous ScERG11 ORF in strain Y2758 was removed by transforming with a LoxP- ScHIS1 containing cassette with arms complementing from +387 nucleotides in the 5′UTR and −60 nucleotides in the 3′UTR of the ScERG11 locus, resulting in strain Y2760 (ADΔΔ PDR5::HsCYP51ch-6×HIS-URA3; PDR15::HsCPRch6×HIS-LoxP, ΔERG11-LoxP-HIS1-LoxP).
(§2) Minimum inhibitory concentration (MIC) were determined according to recommendations outlined in the Clinical and Laboratory Standards Institute (CLSI) document M27-Ed4E[39] with modifications. Sabouraud dextrose (SD) medium (pH 6.8) was used instead of RPMI-1640 for inoculum and growth of the S. cerevisiae strains and cultures were incubated at 30 °C. […] Stock solutions of each agent were prepared in DMSO and the final concentration of DMSO was 1% (v/v) in SD. […] The final concentration of all other compounds ranged from 0.03–16 μg mL^−1. Three biological repeats were performed.

[2] = system: S. cerevisiae Y2513 overexpressed ScCYP51 Y140H; experiment: MIC, recombinant S. cerevisiae strain Y2513 Y140H; assay type: cell-based; settings: Saccharomyces cerevisiae, pH 6.8, read-out: MIC Y2513 Y140H
Procedure: as §1, §2

[3] = system: S. cerevisiae Y2300 overexpressed wild-type ScCYP51; experiment: MIC, recombinant S. cerevisiae strain Y2300 ScCYP51; assay type: cell-based; settings: Saccharomyces cerevisiae; SD medium pH 6.8, 30 °C; 80% inhibition of growth; read-out: MIC Y2300 ScCYP51
Procedure: as §1, §2

[4] = system: S. cerevisiae Y525 overexpressing C. albicans MFS transporter MDR1a; experiment: MIC, recombinant S. cerevisiae strain Y525 CaMDR1a; assay type: cell-based; settings: SD medium pH 6.8, 30 °C; 80% inhibition of growth
Procedure: as §2

[5] = system: C. albicans wild-type clinical isolate CA14; experiment: C. albicans susceptibility testing (CLSI broth microdilution MIC), strain CA14; assay type: cell-based, Candida albicans; settings: RPMI 1640, 37 °C, read at 48 h; for MIC: Candida albicans
Source text: (§3) Each novel compound was screened against C. albicans wild-type clinical isolate CA14 and C. albicans laboratory strain SC5314 using the standardised CLSI M27-S4 broth dilution method.[28] […] This might be explained by the clog P data as the more lipophilic compounds should more readily penetrate the fungal membrane resulting in improved uptake or may relate to optimal fill of the small hydrophobic pocket leading to improved binding.
(§4) Antifungal MIC values were obtained according to the CLSI microdilution method for yeasts.[28]C. albicans strains CA14 and SC5314 were tested in triplicate. Cultures were diluted to 2.5 × 10^3 cells per mL in RPMI 1640 (Sigma), buffered with 0.165 M MOPS, pH 7.0. Antifungal compounds were dissolved in DMSO and added at a final concentration of 1% v/v DMSO. Plates were incubated at 37 °C and read at 48 h.

[6] = system: C. albicans laboratory strain SC5314; experiment: C. albicans susceptibility testing (CLSI broth microdilution MIC), strain SC5314; assay type: cell-based, Candida albicans; settings: RPMI 1640, 37 °C, read at 48 h; for MIC: Candida albicans, SC5314, 48 h
Source text: as §3, §4

[7] = molecular target: T1, C. albicans CYP51 (CaCYP51) (Candida albicans, UniProt P10613); experiment: CaCYP51 reconstitution assay (IC50); assay type: biochemical; settings: 1 μM CaCYP51, 60 μM lanosterol, 15 min at 37 °C
T1 construct: made in house; host or cells: E. coli
T1 sequence (P10613 whole entry): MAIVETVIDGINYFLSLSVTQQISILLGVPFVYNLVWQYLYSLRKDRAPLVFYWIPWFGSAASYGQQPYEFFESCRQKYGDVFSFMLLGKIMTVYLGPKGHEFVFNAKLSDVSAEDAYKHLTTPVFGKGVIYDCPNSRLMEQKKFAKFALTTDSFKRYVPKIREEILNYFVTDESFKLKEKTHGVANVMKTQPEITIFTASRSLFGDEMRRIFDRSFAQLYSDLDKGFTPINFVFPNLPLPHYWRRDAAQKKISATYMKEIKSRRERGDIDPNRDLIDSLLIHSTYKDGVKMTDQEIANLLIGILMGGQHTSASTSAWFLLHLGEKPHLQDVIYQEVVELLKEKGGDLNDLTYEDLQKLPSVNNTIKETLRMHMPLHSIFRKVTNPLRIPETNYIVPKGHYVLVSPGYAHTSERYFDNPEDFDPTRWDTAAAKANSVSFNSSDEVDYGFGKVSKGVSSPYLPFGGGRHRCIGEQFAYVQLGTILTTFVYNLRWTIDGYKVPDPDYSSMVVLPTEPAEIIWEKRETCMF
Procedure: Derivatives with a MIC <1 μg mL^−1 were chosen for IC50 testing.
C. albicans CYP51 was overexpressed in E. coli and purified and CaCYP51 reconstitutions assays performed.[10,37] The final reaction volume of 500 μL, contained; 1 μM C. albicans CYP51, 2 μM Homo sapiens cytochrome P450 reductase (CPR) (UniProtKB accession number P16435), 60 μM lanosterol, 50 μM dilaurylphosphatidylcholine, 4% w/v 2-hydroypropyl-cyclodextrin, 0.4 mg mL^−1 isocitrate dehydrogenase, 25 mM trisodium isocitrate, 50 mM NaCl, 5 mM MgCl2, and 40 mM MOPS (morpholinepropanesulfonic acid, pH 7.2). Antifungal compounds were added in 2.5 μL DMSO. The reaction was started by the addition of 4 mM NADPH-tetrasodium salt. Samples were shaken for 15 min at 37 °C and sterol metabolites extracted with ethyl acetate and derivatised with BSTFA.

[8] = system: S. cerevisiae Y2411 parent (control levels of wild-type ScCYP51); experiment: MIC, recombinant S. cerevisiae strain Y2411 parent; assay type: cell-based; settings: Saccharomyces cerevisiae; SD medium pH 6.8, 30 °C; 80% inhibition of growth; read-out: MIC Y2411 parent
Procedure: as §1, §2

[9] = system: S. cerevisiae Y2301 overexpressed ScCYP51 Y140F; experiment: MIC, recombinant S. cerevisiae strain Y2301 Y140F; assay type: cell-based; settings: Saccharomyces cerevisiae, pH 6.8, read-out: MIC Y2301 Y140F
Procedure: as §1, §2

[10] = system: S. cerevisiae Y570 overexpressing C. albicans ABC transporter CDR1B; experiment: MIC, recombinant S. cerevisiae strain Y570 CaCDR1B; assay type: cell-based; settings: SD medium pH 6.8, 30 °C; 80% inhibition of growth
Procedure: as §1, §2

native CaCYP51 = molecular target: T2, native CaCYP51 (Candida albicans, UniProt P10613); experiment: CaCYP51 type II ligand binding affinity (Kd) from difference spectra saturation curves
T2 construct: made in house; host or cells: E. coli
T2 sequence (P10613 whole entry): as above
Procedure: Azole titration was performed in triplicate.
The ligand–CaCYP51 complex was determined by non-linear regression (Levenberg–Marquardt algorithm) using a rearrangement of the Morrison equation for tight ligand binding,[38] while weak ligand binding was calculated by the Michaelis–Menten equation. Curve fitting for novel azole saturation curves was performed using the computer program ProFit 6.1.12 (QuantumSoft, Zurich, Switzerland) for Mac OSX. Kd values were determined for each of the three replicate titrations per azole compound and then mean Kd values and standard deviations calculated.

[11] = 2.5 μM native CaCYP51, mean ± SD of three titrations, read-out: K d

SMILES	MIC [1] [µg/mL]	MIC [2] [µg/mL]	MIC [3] [µg/mL]	MIC [4] [µg/mL]	MIC [5] [µg/mL]	MIC CA14 [5] [µg/mL]	MIC [6] [µg/mL]	MIC SC5314 [6] [µg/mL]	IC50 [7] [nM]	MIC [8] [µg/mL]	MIC [9] [µg/mL]	MIC [10] [µg/mL]	Kd (native CaCYP51; [11]) [nM]	Kd (native CaCYP51) [nM]
O=C(NCC(O)(Cn1cncn1)c1ccc(Cl)cc1Cl)c1ccc(NC(=O)c2ccc(Cl)cc2)cc1 (stereo not shown) [13b, 4-Chloro-N-(4-((2-(2,4-dichlorophenyl)-2-hydroxy-3-(1H-1,2,4-triazol-1-yl)propyl)carbamoyl)phenyl)benzamide]	4 to 8	0.125	0.25	0.03 to 0.06	< 0.03	<0.03	< 0.03	<0.03	480	0.03 to 0.06	0.25	> 16	166 ± 39	–
O=C(NCC(O)(Cn1cncn1)c1ccc(Cl)cc1)c1ccc(NC(=O)c2ccc(Cl)cc2)cc1 (stereo not shown) [13a, 4-Chloro-N-(4-((2-(4-chlorophenyl)-2-hydroxy-3-(1H-1,2,4-triazol-1-yl)propyl)carbamoyl)phenyl)benzamide]	> 16	1	1 to 2	0.125	< 0.03	<0.03	< 0.03	<0.03	560	0.25	1 to 2	> 16	46 ± 8	–
O=C(NCC(O)(Cn1cncn1)c1ccc(Cl)cc1Cl)c1csc(Cl)n1 (stereo not shown) [7b, 2-Chloro-N-(2-(2,4-dichlorophenyl)-2-hydroxy-3-(1H-1,2,4-triazol-1-yl)propyl)thiazole-4-carboxamide]	> 16	2 to 4	0.5 to 1	2	< 0.03	<0.03	< 0.03	<0.03	410	0.125	4	> 16	106 ± 15	–
OC(Cn1cncn1)(Cn1cncn1)c1ccc(F)cc1F [FLZ, Fluconazole, reference compound]	> 128	32	16	32	0.125 (≈ 0.408 µM)	–	0.125 (≈ 0.408 µM)	–	–	4	32	> 128	–	31 ± 8
